20 molecules from ChEMBL document CHEMBL4627269, “New thiopyrimidine-benzenesulfonamide conjugates as selective carbonic anhydrase II inhibitors: synthesis, in vitro biological evaluation, and molecular docking studies” (Bioorg Med Chem, 2020) can be followed below.

Where only a bound is given, the exact number is not on record here.

In experiment [1] the target is Carbonic anhydrase 9 (Homo sapiens, UniProt Q16790). Nature of the experiment: Inhibition of human carbonic anhydrase 9 incubated for 15 mins prior to testing measured for 10 to 100 secs by phenol red dye based stopped-flow CO2 hydration assay.
Experiment [2] concerns the target Carbonic anhydrase 1 (Homo sapiens, UniProt P00915). Put plainly: Inhibition of human carbonic anhydrase 1 incubated for 15 mins prior to testing measured for 10 to 100 secs by phenol red dye based stopped-flow CO2 hydration assay.
The target of experiment [3] is Carbonic anhydrase 12 (Homo sapiens, UniProt O43570). Nature of the experiment: Inhibition of human carbonic anhydrase 12 incubated for 15 mins prior to testing measured for 10 to 100 secs by phenol red dye based stopped-flow CO2 hydration assay.
The target in experiment [4] is T1, Carbonic anhydrase 2 (Homo sapiens, UniProt P00918). Put plainly: Inhibition of recombinant human carbonic anhydrase 2 incubated for 15 mins prior to testing measured for 10 to 100 secs by phenol red dye based stopped-flow CO2 hydration assay.
Experiment [5] has as its target T1, Carbonic anhydrase 2. Put plainly: Inhibition of recombinant human carbonic anhydrase 2 expressed in Escherichia coli BL21 (DE3) using 4-nitrophenyl acetate as substrate incubated for 10 mins prior to testing by spectrophotometric method.

Chain of Carbonic anhydrase 1 (P00915 whole entry): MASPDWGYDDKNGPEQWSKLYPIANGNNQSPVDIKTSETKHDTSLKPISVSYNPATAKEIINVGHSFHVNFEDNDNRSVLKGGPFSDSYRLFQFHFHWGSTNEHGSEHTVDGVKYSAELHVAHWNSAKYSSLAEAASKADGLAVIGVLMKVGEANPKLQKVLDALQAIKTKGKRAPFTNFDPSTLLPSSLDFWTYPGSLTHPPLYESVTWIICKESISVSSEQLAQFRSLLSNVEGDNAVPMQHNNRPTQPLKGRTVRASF
Chain of Carbonic anhydrase 12 (O43570 whole entry): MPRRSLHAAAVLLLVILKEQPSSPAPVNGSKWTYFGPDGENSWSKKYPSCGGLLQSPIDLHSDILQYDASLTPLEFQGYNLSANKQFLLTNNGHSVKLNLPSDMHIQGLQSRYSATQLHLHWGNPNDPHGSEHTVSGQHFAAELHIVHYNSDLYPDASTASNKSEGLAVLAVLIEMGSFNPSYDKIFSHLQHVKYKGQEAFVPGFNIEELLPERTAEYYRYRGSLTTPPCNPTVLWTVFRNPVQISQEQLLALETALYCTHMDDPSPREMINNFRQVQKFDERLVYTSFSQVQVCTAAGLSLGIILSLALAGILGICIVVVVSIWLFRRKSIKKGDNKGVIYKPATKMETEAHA

By Ki is commonly meant a dissociation constant, usually derived from enzyme kinetics or from competition with a known ligand. On to `O=C(CSc1nccc(Nc2ccc(S(=O)(=O)Nc3ccccn3)cc2)n1)c1ccc(Cl)cc1`, for which the inhibitory constant (Ki) in experiment [1] and in experiment [2] was more than 100 µM throughout. Take `NS(=O)(=O)c1ccc(Nc2ccnc(SCC(=O)c3ccc(F)cc3)n2)cc1`: in experiment [1], the affinity, expressed as Ki, was 0.82 µM. Take `COc1ccc(C(=O)CSc2nccc(Nc3ccc(S(=O)(=O)Nc4cc(C)on4)cc3)n2)cc1`: the Ki in experiment [1] is more than 100 µM.

Consider `Cc1cc(NS(=O)(=O)c2ccc(Nc3ccnc(SCC(=O)c4ccc(F)cc4)n3)cc2)no1`, for which the figures for the Ki in experiment [3], in experiment [1] and in experiment [2] were more than 100 µM, 92.1 µM and more than 100 µM, respectively. Turning to `O=C(CSc1nccc(Nc2ccc(S(=O)(=O)Nc3cncs3)cc2)n1)c1ccc(Cl)cc1`, the inhibition constant (Ki) in experiment [1] is 0.55 µM. Consider `NS(=O)(=O)c1ccc(Nc2ccnc(SCC(=O)c3ccc(-c4ccccc4)cc3)n2)cc1`, for which the inhibition constant Ki in experiment [1] was 0.23 µM; in experiment [2], more than 100 µM. In the case of `COc1ccc(C(=O)CSc2nccc(Nc3ccc(S(=O)(=O)Nc4ncccn4)cc3)n2)cc1`, the results for the inhibition constant (Ki) in experiment [4], in experiment [1] and in experiment [2] were more than 100 µM, 2.51 µM and more than 100 µM, respectively. As to `O=C(CSc1nccc(Nc2ccc(S(=O)(=O)Nc3cncs3)cc2)n1)c1ccccc1`, the Ki in experiment [1] was more than 100 µM. With `Cc1cc(NS(=O)(=O)c2ccc(Nc3ccnc(SCC(=O)c4ccc(Cl)cc4)n3)cc2)no1`, the inhibition constant Ki in experiment [1] is 8.94 µM; in experiment [2] it was more than 100 µM.

Turning to `NS(=O)(=O)c1ccc(Nc2ccnc(NS(=O)(=O)c3cccnc3)n2)cc1`, the inhibition constant Ki in experiment [5] stood at 4 nM. On to `NS(=O)(=O)c1ccc(Nc2ccnc(NS(=O)(=O)c3cccc(C(F)(F)F)c3)n2)cc1`, for which the Ki in experiment [5] amounted to 1 nM. In turn, `NS(=O)(=O)c1ccc(Nc2ccnc(SCC(=O)c3ccc(Br)cc3)n2)cc1` gave an inhibition constant Ki in experiment [1] of more than 100 µM. Consider `COc1ccc(C(=O)CSc2nccc(Nc3ccc(S(=O)(=O)Nc4ccccn4)cc3)n2)cc1`, for which the inhibition constant (Ki) in experiment [4], in experiment [1] and in experiment [2] was more than 100 µM in each case.

With `COc1ccc(C(=O)CSc2nccc(Nc3ccc(S(N)(=O)=O)cc3)n2)cc1`, the inhibitory constant (Ki) in experiment [1] was 5.17 µM. Still for that read-out and setting: for `NS(=O)(=O)c1ccc(Nc2ccnc(SCC(=O)c3ccc(Cl)cc3)n2)cc1` the value was more than 100 µM. On the same count and under the same terms, the result for `NS(=O)(=O)c1ccc(Nc2ccnc(SCC(=O)c3ccc(C(F)(F)F)cc3)n2)cc1` reads 39.2 µM. Same read-out and setting: the result for `NS(=O)(=O)c1ccc(Nc2ccnc(SCC(=O)c3ccccc3)n2)cc1` reads 0.16 µM. Regarding `O=C(CSc1nccc(Nc2ccc(S(=O)(=O)Nc3cncs3)cc2)n1)c1ccc(C(F)(F)F)cc1`, the inhibition constant Ki in experiment [1] is more than 100 µM. Same read-out and setting: the result for `CC(=O)NS(=O)(=O)c1ccc(Nc2ccnc(SCC(=O)c3ccc(Cl)cc3)n2)cc1` reads more than 100 µM. For the molecule `O=C(CSc1nccc(Nc2ccc(S(=O)(=O)Nc3ccccn3)cc2)n1)c1ccccc1`, the inhibitory constant (Ki) in experiment [1] and in experiment [2] was more than 100 µM throughout.
